Some test systems named below: SR; COLO 205; HCT-116; HL-60; IGROV-1; NCI-H460; TK-10; HCC 2998; SNB-75; K562; SK-MEL-2; EKVX; HOP-92; DMS-114.
Holding throughout (experiment): inhibition of tumour cell growth, NCI panel, 48 h

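1) Cells in 96-well plates. 2) Compound, 48 h, 5 concentrations. 3) Linear interpolation between surrounding doses. 4) Unreached endpoint = highest concentration. GI50 is the concentration that inhibits growth by half.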 Activity calls are given as the source filed them. Rule as the data show it: active = GI50 up to about 1.1 µM and inactive = higher. Some results are limits rather than exact numbers.

Regarding `CP(C)C.[Ag][I]`, the GI50 in the assay with SR is > 100 µM (inactive); in the assay on COLO 205, 47.9 µM (inactive); with HCT-116, 58.3 µM (inactive); in the assay on HL-60 it was > 100 µM (inactive); with IGROV-1 it was 40.4 µM (inactive); in the assay on NCI-H460, > 100 µM (inactive). Also, the GI50 with TK-10 was 41.5 µM (inactive); in the assay with HCC 2998, > 100 µM (inactive); in the assay on SNB-75, 20 µM (inactive); in the assay with K562, > 100 µM (inactive); in the assay on SK-MEL-2, > 100 µM (inactive); in the assay with EKVX, > 100 µM (inactive). Besides, the GI50 in the assay on HOP-92 was 40.2 µM (inactive); in the assay with DMS-114, 73.8 µM (inactive).
As for `O=C(O)C1(c2ccccc2)CCCNCC1` (centres undefined), the GI50 in the assay with SR, in the assay with COLO 205, with HCT-116, in the assay with IGROV-1, with NCI-H460 and with TK-10 was > 100 µM (inactive) in each case. Besides, the GI50 in the assay with HCC 2998, in the assay with SNB-75, in the assay with K562, in the assay on SK-MEL-2, with EKVX and in the assay with HOP-92 was > 100 µM (inactive) throughout. For the same molecule, the GI50 with DMS-114 was > 100 µM (inactive).
On to `CCOC(=O)C1=C(O)C(=O)c2ccsc2C1=O`, for which the GI50 with SR, in the assay with COLO 205, in the assay on HCT-116, with HL-60, in the assay on IGROV-1 and in the assay on NCI-H460 was > 100 µM (inactive) throughout. Besides, the GI50 in the assay with TK-10, with HCC 2998, in the assay with SNB-75, in the assay with K562, in the assay with SK-MEL-2 and in the assay with EKVX was > 100 µM (inactive) each time. For the same molecule, the GI50 in the assay on HOP-92 and in the assay with DMS-114 was > 100 µM (inactive) each time.
Consider `OCn1nc2c(C3OCCO3)cc3ccccc3n2c1=S`, for which the GI50 in the assay with SR, in the assay with COLO 205, in the assay with HCT-116, in the assay on HL-60, in the assay on IGROV-1 and in the assay on NCI-H460 was > 100 µM (inactive) in each case. The GI50 with TK-10, with SNB-75, with K562, in the assay with SK-MEL-2, in the assay with EKVX and in the assay on HOP-92 was > 100 µM (inactive) in each case. The GI50 in the assay on DMS-114 was > 100 µM (inactive).
Regarding `CCOc1cc2cnc3c4cc(OC)c(OC)cc4ccc3c2cc1OC`, the GI50 is 27.3 µM (inactive) with SR; 4.92 µM (inactive) in the assay with COLO 205; > 100 µM (inactive) in the assay with HCT-116; 40.2 µM (inactive) in the assay on HL-60; > 100 µM (inactive) in the assay on IGROV-1; > 100 µM (inactive) in the assay with NCI-H460. Also, the GI50 with TK-10 is > 100 µM (inactive); with HCC 2998, > 100 µM (inactive); with SNB-75 it was > 100 µM (inactive); with K562, 20.7 µM (inactive); in the assay on SK-MEL-2, 69 µM (inactive); in the assay with EKVX it was > 100 µM (inactive). The GI50 was > 100 µM (inactive) with HOP-92 and 7.1 µM (inactive) with DMS-114.
For the molecule `COc1ccc(N2C(=O)/C(=C/c3ccc(N(CCC#N)CCC#N)cc3C)N=C2/C=C\c2ccccc2)cc1`, the GI50 in the assay on SR was 44 µM (inactive); with COLO 205 it was 26.7 µM (inactive); with HCT-116 it was 76.6 µM (inactive); in the assay on HL-60, 92.7 µM (inactive); in the assay with IGROV-1, 68.4 µM (inactive); with NCI-H460, 33.4 µM (inactive). In addition, the GI50 in the assay on TK-10 is 98.9 µM (inactive); in the assay with SNB-75, > 100 µM (inactive); in the assay on K562, 40.1 µM (inactive); in the assay with SK-MEL-2 it was > 100 µM (inactive); in the assay on HOP-92, > 100 µM (inactive); with DMS-114, 23.9 µM (inactive).
As for `CC(=O)OC1CC2C(C)(C)C(=O)C=C[C@]2(C)C2CCC3(C)C(c4ccoc4)C(=O)C4OC43[C@]12C` (some centres undefined), the GI50 was 11.5 µM (inactive) in the assay on SR; 18.1 µM (inactive) in the assay with COLO 205; 13 µM (inactive) in the assay with HCT-116; 12.4 µM (inactive) in the assay on HL-60; 21 µM (inactive) in the assay with IGROV-1; 17.1 µM (inactive) with NCI-H460. In addition, the GI50 with TK-10 is 36.6 µM (inactive); in the assay on HCC 2998, 16.7 µM (inactive); in the assay on SNB-75 it was 22.4 µM (inactive); with K562, 13.1 µM (inactive); in the assay with SK-MEL-2, 16 µM (inactive); with EKVX, 40.5 µM (inactive). In addition, the figures for the GI50 in the assay with HOP-92 and with DMS-114 were 15.8 µM (inactive) and 16.1 µM (inactive), respectively.
`Cc1[nH]c2ccccc2c1C1=NO/C(=N\O)C(c2c(C)[nH]c3ccccc23)C1` (centres undefined): the GI50 in the assay with SR was 23.8 µM (inactive); with COLO 205 it was 19.7 µM (inactive); in the assay with HCT-116, 28.3 µM (inactive); in the assay on HL-60, 20.5 µM (inactive); in the assay with IGROV-1, 34.8 µM (inactive); in the assay on NCI-H460 it was 23.9 µM (inactive). Besides, the GI50 in the assay with TK-10 was 54 µM (inactive); in the assay on HCC 2998 it was 37.9 µM (inactive); in the assay with SNB-75, 43.2 µM (inactive); in the assay on K562, 33.2 µM (inactive); in the assay with SK-MEL-2 it was 40 µM (inactive); with EKVX it was 27.3 µM (inactive). Also, the GI50 was 20.8 µM (inactive) in the assay on HOP-92 and 36.8 µM (inactive) in the assay on DMS-114.
For `CC(C)=CCC/C(C)=C/CC/C(C)=C/Cc1c(O)c2ccccc2oc1=O`, the GI50 was > 100 µM (inactive) in the assay with SR; > 100 µM (inactive) with COLO 205; 89.1 µM (inactive) with HCT-116; 99.1 µM (inactive) in the assay with HL-60; > 100 µM (inactive) in the assay with IGROV-1; > 100 µM (inactive) in the assay on NCI-H460. Further, the GI50 with TK-10 was > 100 µM (inactive); with HCC 2998, > 100 µM (inactive); with SNB-75 it was > 100 µM (inactive); with K562 it was 80.5 µM (inactive); in the assay on SK-MEL-2 it was > 100 µM (inactive); with EKVX, > 100 µM (inactive). For the same molecule, the results for the GI50 in the assay on HOP-92 and in the assay with DMS-114 were > 100 µM (inactive) and 83.6 µM (inactive), respectively.
Regarding `C=C[C@@]12CCCCC1C/C(=C(/O)OC)C(=O)C2` (some centres undefined), the GI50 in the assay with SR, in the assay on COLO 205, with HCT-116, with HL-60, in the assay on IGROV-1 and with NCI-H460 was > 100 µM (inactive) each time. Moreover, the GI50 with TK-10, with HCC 2998, with SNB-75, in the assay on K562, in the assay on SK-MEL-2 and in the assay with EKVX was > 100 µM (inactive) in each case. Besides, the GI50 in the assay on HOP-92 and in the assay with DMS-114 was > 100 µM (inactive) throughout.
`Cc1nc(N)sc1C(=O)/C=C/c1ccc(/C=C/C(=O)c2sc(NC(=O)CCCCCCCCC(=O)Nc3nc(C)c(C(=O)/C=C/c4ccc(/C=C/C(=O)c5sc(N)nc5C)cc4)s3)nc2C)cc1`: the GI50 is > 100 µM (inactive) with SR; > 100 µM (inactive) in the assay with COLO 205; 92 µM (inactive) in the assay with HCT-116; > 100 µM (inactive) in the assay with HL-60; > 100 µM (inactive) with IGROV-1; > 100 µM (inactive) in the assay on NCI-H460. For the same molecule, the GI50 in the assay on TK-10 was > 100 µM (inactive); in the assay on HCC 2998, > 100 µM (inactive); in the assay with K562, > 100 µM (inactive); in the assay on SK-MEL-2, > 100 µM (inactive); in the assay with EKVX, > 100 µM (inactive); in the assay with HOP-92, < 0.01 µM (active). Further, the GI50 in the assay with DMS-114 was > 100 µM (inactive).

Source of the values: ChEMBL document CHEMBL1201862, “PubChem BioAssay data set” (2004).
